For data set [1] the following is noted: cited from earlier work.
In data set [2] the test system is A427 lung cancer tumor cells. In words: MS analysis of intracellular accumulation, A427. The class given is cell-based. Particulars: 10 µM, 2 hours incubation. As for the experimental part:
(§1) Cells were seeded in a 6-well plate at 2.5 x 10^5 cells/well and 1 mL/well. When the cells reached 80% confluence, the culture medium was decanted and 1 mL per well of fresh medium to the control wells or 1 mL per well of the test medium with methotrexate at a concentration of 10 µM or a derivative of methotrexate at a concentration of 10 µM, respectively, was added. The plate was wrapped in foil and incubated for 2 hours in an incubator. After this time, the medium was decanted, and each well was washed with 2x1 mL of PBS at room temperature. Then, the plate was placed on ice and 500 µL of a 3:1 mixture of methanol and ultrapure water at -20 °C were applied to each well. The mixture was pipetted several times in each well and collected in a test tube. Then, the procedure was repeated and the prepared samples (each with a volume of 1 mL) were placed in a lowtemperature freezer at -80 °C. The next day, the samples were concentrated in a vacuum concentrator until the samples were completely dry. Prior to analysis, the solvent for MS analysis (Xevo G2 Q-TOF MS) was added to the sample. In figure 7 it can be seen that in case of MTX the surface area of MCF7 tumor cells grown with MTX is about 308 units, and when using a compound according to the invention (identified as 77_1 in Figure 7) it is 525, i.e. about 1.7 times less than in the case of a conjugate. […]

For data set [3] the following is noted: administered intravenously, cited from earlier work.
Data set [4] has as its system MG-63 (bone sarcoma). In words: MTT cytotoxicity test, MG-63. Particulars: Homo sapiens, incubation 72 hours, read-out: IC50 values (µM) for individual cell lines MG-63 (bone sarcoma). It counts as cell-based. As for the experimental part:
(§2) Cells were seeded in a 96-well plate at 5-10 x 10^3 cells per well. After 24 hours, the culture medium was decanted and 100 µL of fresh medium was added to the control wells, while the medium with test compounds dissolved in DMSO was added to the test wells. The plates were wrapped in foil and placed in an incubator. After 72 hours of incubation, the medium was decanted and 100 µL of a solution of yellow soluble 3-(4,5-dimethyl-2-thiazolyl)-2,5-diphenyl-2H-tetrazolium bromide (MTT) at a concentration of 0.5-1 mg/mL was added. After 4 hours of incubation, the MTT solution was decanted and 50 µL/well of DMSO was added. After 3 hours, the optical density of the dissolved formazan was analyzed colorimetrically in a BioTek plate reader. […] Since living cells reduce MTT to formazan, the optical density (OD) is highest in the control (C) wells which accounted for 100% of cell viability. Viablity in wells incubated with compound (COMP) was calculated using the formula: X = 100% × OD COMP/OD C [formula] The results reported are the mean value of triplicate cytotoxicity analysis. Cell viability studies using the MTT assay on cell lines of numerous cancers, including breast cancer, colorectal cancer, lung cancer, skin cancer, and bone sarcoma have shown that Glu-MTX is cytotoxic in vitro. […]
In general terms: Formazan colour is commonly taken as a measure of viable cells.

Data set [5] deals with MCF-7 breast cancer tumor cells. In words: MS analysis of intracellular accumulation, MCF-7. It counts as cell-based. Particulars: human, 2 h, 10 µM. The protocol:
as §1

The conditions of data set [6]: male, BALB/ccmdb, mouse, in vivo, iv. As for the experimental part:
The pharmacokinetic profile of the glucose-methotrexate derivative according to the invention (GMTX; chemical formula: C42H58N16O15) was examined in relation to the profile of the classical form of this drug (MTX) after a single intravenous administration into the tail vein. The solutions administered to the animals were prepared on the day of administration.
GMTX was administered to mice intravenously via the tail vein, in a single dose, in the form of solutions (with concentrations ensuring that the animals are dosed appropriately) prepared in 5% DMSO and saline in the 1:20 ratio, in a volume not exceeding 0.2 cm^3/mouse. […]
Mice were administered intravenously (i.v.) GMTX and MTX and blood was collected (to obtain plasma) at 4 time points after injection (1 h, 2 h, 4 h and 8 h), as well as in the so-called time 0 (blood sampling from animals that received neither MTX nor GMTX). […] Another 16 males were administered GMTX at a dose of 400 mg/kg body weight, constituting ½ the MTD of this compound (determined in our study with the code T425/001/2020), and the remaining 8 subjects were not administered either classic MTX nor its glycoconjugate (GMTX). […]
The results of MTX and GMTX concentrations in the plasma of mice were statistically analyzed using the Statistica 13 computer program. The results were expressed as the mean concentration (± standard deviation - SD) at individual time points. […]

Data set [7] deals with DLD-1 (large intestine). In words: MTT cytotoxicity test, DLD-1. The class given is cell-based. The conditions noted are these: Homo sapiens, incubation 72 hours, read-out: IC50 values (µM) for individual cell lines DLD-1 (large intestine). As for the experimental part: as §2
The subject of data set [8] is WI38 (healthy fibroblasts). In words: MTT cytotoxicity test, WI38. The conditions noted are these: Homo sapiens, WI-38, incubation 72 hours, read-out: IC50 values (µM) for individual cell lines WI38 (healthy fibroblasts). The class given is cell-based. The protocol: as §2
Data set [9] has as its system MCF-7 (breast). The experiment in a line: MTT cytotoxicity test, MCF-7. It counts as cell-based. Particulars: Homo sapiens, MCF7, incubation 72 hours, read-out: IC50 values (µM) for individual cell lines MCF-7 (breast). The protocol: as §2

Each structure is given as a SMILES string. Where two headings read alike, the source gives them in different places.

On to `CN(Cc1cnc2nc(N)nc(N)c2n1)c1ccc(C(=O)N[C@@H](CCC(=O)O)C(=O)O)cc1` [MTX, Methotrexate], for which the bioavailability in data set [1] (in high doses) is on record as 10-20%; in data set [1] (in low doses), “almost complete”. Besides, the plasma half-life in [1] (in vivo) is 5 to 8 h. For the same molecule, the “surface area of MTX, times smaller compared to that of the conjugate” value in data set [2] amounted to 1.7 times. For the same molecule, the MTD in data set [3] (mice of the BALB/c strain, Moura et al. 2011) is reported as 94 mg/kg b.w. Besides, in data set [3] (mice), the LD50 is recorded as 65 mg/kg b.w. In addition, the IC50 – broadly, the concentration needed to halve the response being measured – was 61 ± 0.76 µM in [4], 6.85 ± 0.21 µM in data set [7], 16.9 ± 1.94 µM in data set [8] and 9.61 ± 0.12 µM in data set [9]. For the same molecule, in data set [5], the “surface area (MS analysis)” value is “about 308 units”. The “surface area of MTX, times less than in the case of a conjugate” value in [5] is “about 1.7 times”. In data set [6], the “eliminated from the systemic circulation (time)” value is no more than 4 h.

Source of the values: patent EP4352072B1, “SYNTHESIS OF A NOVEL GLUCOSE-CONJUGATED METHOTREXATE AND ITS APPLICATION FOR THE TREATMENT AND PREVENTION OF NEOPLASMS” (Uniwersytet Medyczny Im. Piastów Slaskich We Wroclawiu, priority 2021, dated 2022).
